In patent publication US20080171687A1, “Compositions And Methods For The Preparation And Administration Of Poorly Water Soluble Drugs” (Abraxis Bioscience, Inc., priority 2004, published 2008):
In brackets after ≈: the same amount, converted by molar mass.

Assays:
physchem = conditions: organic solvent or mixture, thermodynamic from solid, Solubility In DMI (mg/ml)
[1] = solvent dimethyl isosorbide (DMI); dissolved with gentle heating as needed

Row | SMILES | solubility (physchem) [mg/mL] | further results
1 | CC(=O)O[C@@]12CO[C@@H]1C[C@H](O)[C@@]1(C)C(=O)[C@H](O)C3=C(C)[C@@H](OC(=O)[C@H](O)[C@@H](NC(=O)OC(C)(C)C)c4ccccc4)C[C@@](O)([C@@H](OC(=O)c4ccccc4)[C@H]21)C3(C)C [Docetaxel] | 90 (≈ 111 mM) | –
2 | CC[C@@]1(O)C(=O)OCc2c1cc1n(c2=O)Cc2cc3ccccc3nc2-1 [Campothecin] | – | solubility (physchem; solvent dimethyl isosorbide (DMI), dissolved with gentle heating as needed): < 1 mg/mL
3 | CC(C)c1cccc(C(C)C)c1O [Propofol] | – | Solubility In DMI (mg/ml) [1]: completely
4 | CCc1c2c(nc3ccc(O)cc13)-c1cc3c(c(=O)n1C2)COC(=O)[C@]3(O)CC [SN-38] | – | Solubility In DMI [1]: <1 mg/mL

Now from value to compound, other results behind:

Row | solubility (physchem) [mg/mL] | SMILES | further results
5 | 17.4 (≈ 50.4 mM) | COc1ccc2[nH]c([S+]([O-])Cc3ncc(C)c(OC)c3C)nc2c1 (centres unmarked) [Omeprazole] | –
6 | 9.6 (≈ 13.6 mM) | CCC(C)n1ncn(-c2ccc(N3CCN(c4ccc(OCC5COC(Cn6cncn6)(c6ccc(Cl)cc6Cl)O5)cc4)CC3)cc2)c1=O (centres unmarked) [Itraconazole] | –
7 | 192 (≈ 827 mM) | COc1ccc2[nH]cc(CCNC(C)=O)c2c1 [Melatonin] | –
8 | 121 (≈ 132 mM) | CO[C@H]1C[C@@H]2CC[C@@H](C)[C@@](O)(O2)C(=O)C(=O)N2CCCC[C@H]2C(=O)O[C@H]([C@H](C)C[C@@H]2CC[C@@H](O)[C@H](OC)C2)CC(=O)[C@H](C)/C=C(\C)[C@@H](O)[C@@H](OC)C(=O)[C@H](C)C[C@H](C)/C=C/C=C/C=C/1C [Rapamycin] | –
